Data on 19 molecules can be found in ChEMBL document CHEMBL4831525, “Design, synthesis and biological evaluation of quinazoline derivatives as potent and selective FGFR4 inhibitors” (Eur J Med Chem, 2021).

For orientation: inhibition means how much of the control response was suppressed. One may read the IC50 as the concentration that inhibits the measured activity by half. Low readings indicate greater potency, high ones weaker potency.

Active and inactive are the calls of the source. No cut-off for these calls is given here.

The target of data set [1] is T1, Fibroblast growth factor receptor 4 (Homo sapiens, UniProt P22455). The data set is described as follows: Inhibition of N-terminal GST fusion tagged human FGFR4 cytoplasmic domain (460 to 802 end residues) expressed in baculovirus expression system at 1 nM preincubated for 10 mins followed by substrate addition and further incubated for 30 mins in presence of ATP at Km concentration by caliper mobility shift assay relative to control. The settings on record: time 40.0 min.
Target sequence in this assay (P22455 22-802 limits assumed): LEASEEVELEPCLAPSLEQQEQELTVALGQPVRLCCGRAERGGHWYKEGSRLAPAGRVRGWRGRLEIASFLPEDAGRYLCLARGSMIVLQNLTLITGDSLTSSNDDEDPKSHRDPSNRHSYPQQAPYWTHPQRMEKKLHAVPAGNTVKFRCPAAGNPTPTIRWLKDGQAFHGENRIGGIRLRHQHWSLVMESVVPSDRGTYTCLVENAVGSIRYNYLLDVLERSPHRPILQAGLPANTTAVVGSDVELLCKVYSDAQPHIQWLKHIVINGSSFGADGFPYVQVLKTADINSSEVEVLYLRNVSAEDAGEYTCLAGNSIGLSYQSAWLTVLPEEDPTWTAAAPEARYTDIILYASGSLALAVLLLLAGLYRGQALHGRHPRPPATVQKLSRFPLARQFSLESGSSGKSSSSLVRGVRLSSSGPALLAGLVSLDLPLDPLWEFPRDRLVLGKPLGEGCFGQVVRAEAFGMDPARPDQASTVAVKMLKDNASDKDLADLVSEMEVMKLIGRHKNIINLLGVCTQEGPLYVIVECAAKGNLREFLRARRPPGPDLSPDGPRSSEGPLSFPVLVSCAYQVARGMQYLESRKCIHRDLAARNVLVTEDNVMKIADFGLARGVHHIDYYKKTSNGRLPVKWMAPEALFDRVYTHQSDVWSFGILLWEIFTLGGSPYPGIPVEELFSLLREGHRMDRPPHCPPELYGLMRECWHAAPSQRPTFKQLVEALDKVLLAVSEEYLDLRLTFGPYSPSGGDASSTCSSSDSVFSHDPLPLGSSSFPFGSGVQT

Data set [2] relates to Huh-7. As to the kind of experiment: cells. As to conditions: Homo sapiens, Huh-7, 72 h.
Description: Antiproliferative activity against human Huh-7 cells assessed as inhibition of cell proliferation measured after 72 hrs by SRB assay
Data set [3] is described as follows: Stability of the compound in rat liver microsomes assessed as parent compound remaining incubated for 60 mins in presence of NADPH by LC-MS analysis. The format is ADME, Microsome. As to conditions: read-out: Stability. (In general: Liver microsomes are a subcellular fraction often used to study metabolism.)
In data set [4] the test system is Hep 3B2. The data set is described as follows: Induction of apoptosis in human Hep3B cells assessed as increase in cleaved PARP level at 3 to 20 uM by Western blot analysis. Format: functional, cell-based. The settings on record: dose 3-20 µM.
Data set [5] can be described thus: Stability of the compound in rat plasma assessed as parent compound remaining incubated for 60 mins. Format: ADME, cell-free. As to conditions: read-out: Stability.
Data set [6] has as its target Fibroblast growth factor receptor 1 (Homo sapiens, UniProt P11362). As to the kind of experiment: Inhibition of FGFR1 (unknown origin).
The target in data set [7] is Fibroblast growth factor receptor 2 (Homo sapiens, UniProt P21802). As to the kind of experiment: Inhibition of FGFR2 (unknown origin).
In data set [8] the target is Fibroblast growth factor receptor 3 (Homo sapiens, UniProt P22607). As to the kind of experiment: Inhibition of FGFR3 (unknown origin).
Data set [9] has as its target T1, Fibroblast growth factor receptor 4.
Target sequence in this assay (P22455 whole entry, the tested form may be a part): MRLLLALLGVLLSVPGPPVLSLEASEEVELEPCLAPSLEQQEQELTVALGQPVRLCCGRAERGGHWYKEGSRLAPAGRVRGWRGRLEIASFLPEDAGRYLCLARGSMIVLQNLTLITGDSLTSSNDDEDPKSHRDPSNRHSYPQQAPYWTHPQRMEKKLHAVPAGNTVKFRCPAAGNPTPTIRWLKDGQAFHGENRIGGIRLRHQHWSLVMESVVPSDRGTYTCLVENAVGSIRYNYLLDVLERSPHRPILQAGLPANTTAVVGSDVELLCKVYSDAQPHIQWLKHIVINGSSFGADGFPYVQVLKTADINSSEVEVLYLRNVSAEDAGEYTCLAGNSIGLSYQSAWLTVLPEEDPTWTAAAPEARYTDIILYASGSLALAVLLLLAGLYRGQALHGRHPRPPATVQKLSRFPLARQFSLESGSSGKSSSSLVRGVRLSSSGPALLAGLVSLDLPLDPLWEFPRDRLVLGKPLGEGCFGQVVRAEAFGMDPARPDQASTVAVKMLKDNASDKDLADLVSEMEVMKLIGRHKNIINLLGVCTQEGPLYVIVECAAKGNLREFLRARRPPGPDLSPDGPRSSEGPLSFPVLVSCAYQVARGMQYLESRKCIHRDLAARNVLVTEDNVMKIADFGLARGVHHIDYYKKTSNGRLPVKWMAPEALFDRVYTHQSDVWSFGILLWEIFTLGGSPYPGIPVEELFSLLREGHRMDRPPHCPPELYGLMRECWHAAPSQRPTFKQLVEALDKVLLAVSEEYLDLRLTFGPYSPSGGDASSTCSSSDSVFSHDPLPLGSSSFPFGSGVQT
Description: Inhibition of FGFR4 (unknown origin)

Chain of Fibroblast growth factor receptor 3 (P22607 whole entry): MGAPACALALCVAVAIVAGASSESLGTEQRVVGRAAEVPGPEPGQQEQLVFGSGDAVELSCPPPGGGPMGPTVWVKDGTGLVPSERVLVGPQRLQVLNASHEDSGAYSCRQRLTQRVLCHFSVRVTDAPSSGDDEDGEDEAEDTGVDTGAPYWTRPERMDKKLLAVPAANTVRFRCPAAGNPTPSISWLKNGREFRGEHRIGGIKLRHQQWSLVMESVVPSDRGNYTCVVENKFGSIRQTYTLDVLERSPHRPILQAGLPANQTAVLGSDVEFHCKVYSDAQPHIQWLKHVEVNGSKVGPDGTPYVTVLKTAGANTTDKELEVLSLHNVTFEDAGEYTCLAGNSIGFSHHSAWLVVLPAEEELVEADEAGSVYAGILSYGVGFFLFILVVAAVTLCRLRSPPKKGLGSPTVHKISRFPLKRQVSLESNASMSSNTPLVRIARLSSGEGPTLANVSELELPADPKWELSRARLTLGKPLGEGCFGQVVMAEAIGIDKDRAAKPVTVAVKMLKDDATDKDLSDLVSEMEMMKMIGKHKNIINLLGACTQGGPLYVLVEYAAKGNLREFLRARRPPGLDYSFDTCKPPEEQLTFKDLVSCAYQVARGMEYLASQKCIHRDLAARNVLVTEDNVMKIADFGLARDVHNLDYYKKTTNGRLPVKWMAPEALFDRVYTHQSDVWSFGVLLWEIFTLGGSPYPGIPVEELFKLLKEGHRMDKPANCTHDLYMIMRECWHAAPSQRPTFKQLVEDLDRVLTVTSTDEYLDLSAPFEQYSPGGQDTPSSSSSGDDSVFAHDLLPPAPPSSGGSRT
Chain of Fibroblast growth factor receptor 1 (P11362 whole entry): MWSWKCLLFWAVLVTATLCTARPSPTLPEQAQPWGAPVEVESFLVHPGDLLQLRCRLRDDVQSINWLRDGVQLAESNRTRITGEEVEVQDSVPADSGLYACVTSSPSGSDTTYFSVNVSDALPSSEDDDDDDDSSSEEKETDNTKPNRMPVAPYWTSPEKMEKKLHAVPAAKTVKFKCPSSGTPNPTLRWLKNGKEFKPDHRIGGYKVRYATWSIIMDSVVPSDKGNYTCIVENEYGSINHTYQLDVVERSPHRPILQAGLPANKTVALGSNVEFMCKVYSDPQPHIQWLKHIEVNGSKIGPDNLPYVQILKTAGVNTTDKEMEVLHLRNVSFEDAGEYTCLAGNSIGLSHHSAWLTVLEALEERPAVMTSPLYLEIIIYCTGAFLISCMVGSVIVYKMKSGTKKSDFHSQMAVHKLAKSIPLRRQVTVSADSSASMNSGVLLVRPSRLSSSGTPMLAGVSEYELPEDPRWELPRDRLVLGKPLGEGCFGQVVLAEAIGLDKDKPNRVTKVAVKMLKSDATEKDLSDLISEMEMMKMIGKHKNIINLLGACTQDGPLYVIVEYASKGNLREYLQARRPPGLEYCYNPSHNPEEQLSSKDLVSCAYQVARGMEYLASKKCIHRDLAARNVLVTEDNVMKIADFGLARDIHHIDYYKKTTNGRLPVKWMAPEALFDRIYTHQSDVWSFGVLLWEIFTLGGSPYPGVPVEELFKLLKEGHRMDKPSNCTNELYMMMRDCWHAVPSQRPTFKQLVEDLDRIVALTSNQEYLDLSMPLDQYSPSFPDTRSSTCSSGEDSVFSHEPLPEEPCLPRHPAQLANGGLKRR
Chain of Fibroblast growth factor receptor 2 (P21802 whole entry): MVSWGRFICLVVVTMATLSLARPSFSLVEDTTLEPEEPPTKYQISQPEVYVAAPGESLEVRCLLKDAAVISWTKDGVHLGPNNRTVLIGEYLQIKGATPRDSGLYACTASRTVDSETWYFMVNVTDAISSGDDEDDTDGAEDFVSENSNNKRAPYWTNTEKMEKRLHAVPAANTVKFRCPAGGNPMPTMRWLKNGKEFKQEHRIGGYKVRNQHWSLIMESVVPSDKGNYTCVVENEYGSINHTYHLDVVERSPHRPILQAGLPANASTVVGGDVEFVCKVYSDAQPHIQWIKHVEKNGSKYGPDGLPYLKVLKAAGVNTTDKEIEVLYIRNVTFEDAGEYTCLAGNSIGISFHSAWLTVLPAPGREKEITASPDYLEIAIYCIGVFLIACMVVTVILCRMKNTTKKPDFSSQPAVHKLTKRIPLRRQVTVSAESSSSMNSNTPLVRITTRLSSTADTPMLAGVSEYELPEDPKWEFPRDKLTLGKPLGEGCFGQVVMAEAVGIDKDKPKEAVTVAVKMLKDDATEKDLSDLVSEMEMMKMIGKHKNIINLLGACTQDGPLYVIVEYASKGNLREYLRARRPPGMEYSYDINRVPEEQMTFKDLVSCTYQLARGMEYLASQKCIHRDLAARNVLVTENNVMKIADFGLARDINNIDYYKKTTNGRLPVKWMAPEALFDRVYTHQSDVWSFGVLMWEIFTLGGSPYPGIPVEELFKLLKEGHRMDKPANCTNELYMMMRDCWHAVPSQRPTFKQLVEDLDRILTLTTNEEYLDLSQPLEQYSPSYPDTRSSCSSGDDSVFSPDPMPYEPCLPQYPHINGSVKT

Consider `C=CC(=O)Nc1cc(CCCN(C)C)cc(C)c1Nc1ncc2cc(-c3c(Cl)c(OC)cc(OC)c3Cl)ccc2n1`, for which the inhibition in data set [1] was found to be 55%. Also, the IC50 in data set [2] was 2240 nM.
In data set [2], `C=CC(=O)Nc1cc(CCN2CCN(C3COC3)CC2)cc(C)c1Nc1ncc2cc(-c3c(Cl)c(OC)cc(OC)c3Cl)ccc2n1` registered an IC50 of 8480 nM.
Regarding `C=CC(=O)Nc1cc(CCN2CCCC2)cc(C)c1Nc1ncc2cc(-c3c(Cl)c(OC)cc(OC)c3Cl)ccc2n1`, in data set [2], the IC50 turned out to be 4520 nM. Compared with the last molecule, the IC50 is about 1.9-fold lower.
In the case of `C=CC(=O)Nc1cc(S(=O)(=O)NC(=O)C=C)ccc1Nc1ncc2cc(-c3c(Cl)c(OC)cc(OC)c3Cl)ccc2n1`, in data set [2], the IC50 is 4750 nM.
Still for that read-out and setting: the figure for `C=CC(=O)Nc1cc(CCCN2CCCC2)cc(C)c1Nc1ncc2cc(-c3c(Cl)c(OC)cc(OC)c3Cl)ccc2n1` is 4260 nM.
Take `C=CC(=O)Nc1cccc(C)c1Nc1ncc2cc(-c3c(Cl)c(OC)cc(OC)c3Cl)ccc2n1`: the remaining at 1 h in [3] came out at 15%. Besides, in data set [4], the result was Active. Moreover, the concentration for half-maximal inhibition (IC50) in data set [2] stood at 929 nM.
Regarding `C=CC(=O)Nc1cc(S(N)(=O)=O)cc(C)c1Nc1ncc2cc(-c3c(Cl)c(OC)cc(OC)c3Cl)ccc2n1`, the remaining at 1 h in [3] was determined as 50%; in data set [5], 80%. In addition, the IC50 in data set [6] stood at 787 nM; in data set [7] it was 341 nM; in data set [8], 3920 nM; in data set [2] it was 1670 nM. The outcome in [4] was Active.
In data set [2], `C=CC(=O)Nc1cc(CCN2CCC(NC(=O)OC(C)(C)C)CC2)cc(C)c1Nc1ncc2cc(-c3c(Cl)c(OC)cc(OC)c3Cl)ccc2n1` registered an IC50 of 4480 nM.
On to `C=CC(=O)Nc1cc(CCN2CCCC2CN2CCCC2)cc(C)c1Nc1ncc2cc(-c3c(Cl)c(OC)cc(OC)c3Cl)ccc2n1` (centres undefined), for which the IC50 in [2] was 3560 nM.
On to `C=CC(=O)Nc1cc(SC)ccc1Nc1ncc2cc(-c3c(Cl)c(OC)cc(OC)c3Cl)ccc2n1`, for which the half-inhibitory concentration (IC50) amounted to 39 nM in data set [6], 24 nM in data set [7], 79 nM in data set [8] and 936 nM in data set [2].
Molecule `C=CC(=O)Nc1cc(CCN2CCc3ccccc3C2)cc(C)c1Nc1ncc2cc(-c3c(Cl)c(OC)cc(OC)c3Cl)ccc2n1` came in with an IC50 in [2] of 4450 nM.
For `C=CC(=O)Nc1cc(S(C)(=O)=O)cc(C)c1Nc1ncc2cc(-c3c(Cl)c(OC)cc(OC)c3Cl)ccc2n1`, the IC50 came to 886 nM in data set [6], 379 nM in data set [7], 3870 nM in data set [8] and 1940 nM in data set [2].
`C=CC(=O)Nc1cc(CCN2CCOCC2)cc(C)c1Nc1ncc2cc(-c3c(Cl)c(OC)cc(OC)c3Cl)ccc2n1` showed an IC50 in data set [2] of 13300 nM.
In [2], `C=CC(=O)Nc1cc(CCN2CCN(C)CC2)cc(C)c1Nc1ncc2cc(-c3c(Cl)c(OC)cc(OC)c3Cl)ccc2n1` displayed an IC50 of 7140 nM.
On to `C=CC(=O)N[C@H]1CCOC[C@H]1Nc1ncc2cc(-c3c(Cl)c(OC)cc(OC)c3Cl)ccc2n1` [FISOGATINIB], for which the IC50 in data set [7] amounted to 1200 nM; in data set [8] it was 2200 nM; in data set [9] it was 5 nM.
Molecule `C=CC(=O)Nc1cc(CCN(CC)CCC)cc(C)c1Nc1ncc2cc(-c3c(Cl)c(OC)cc(OC)c3Cl)ccc2n1` displayed an IC50 in data set [2] of 4330 nM.
The molecule `C=CC(=O)Nc1cc(CCN2CCN(CCOC)CC2)cc(C)c1Nc1ncc2cc(-c3c(Cl)c(OC)cc(OC)c3Cl)ccc2n1` gave an IC50 in data set [2] of 4180 nM.
Still for that read-out and setting: next, `C=CC(=O)Nc1cc(CCO)cc(C)c1Nc1ncc2cc(-c3c(Cl)c(OC)cc(OC)c3Cl)ccc2n1`: 2410 nM.
Turning to `C=CC(=O)Nc1cc(S(C)(=O)=O)ccc1Nc1ncc2cc(-c3c(Cl)c(OC)cc(OC)c3Cl)ccc2n1`, the IC50 in data set [6] stood at 28 nM; in data set [7], 15 nM; in data set [8] it was 102 nM; in data set [2], 2160 nM.
